Assay [1] concerns L1210 cells. Kind of assay: L1210 cytotoxicity in presence of DFMO. In kind it is cell-based, mouse. As to conditions: in the presence of DFMO. The method, then:
(§1) L1210 cells are mouse leukemia cells and are a standard well used benchmark for evaluating cytotoxicity of new drug systems, especially polyamine containing drugs.
(§2) Cytotoxicity experiments were also performed in murine leukemia cells (L1210, Table 3) with and without the presence of difluoromethylornithine (DFMO), a known inhibitor of ornithine decarboxylase (the enzyme responsible for polyamine biosynthesis). Typically, when one blocks the ability of cells to synthesize polyamines, the cells respond by increasing their import of extracellular polyamines via PAT. Therefore, if our drugs are PAT-selective we should see a lowering of their respective IC50 values in the presence of DFMO, a molecule which facilitates the drug's import. […] Ki values indicate the binding affinity of the compounds for the PAT. Using competition experiments with radiolabeled spermidine, we were able to rank the binding affinity of the compounds for the PAT. Low Ki values mean the compound has a high binding affinity for the PAT.

The target of assay [2] is Topoisomerase IIalpha (Topo IIa) (Homo sapiens, UniProt P11388). Kind of assay: Topo II kDNA decatenation assay (agarose gel). The class given is biochemical. The method, then: Thus the linear polyamine-anthracene conjugates herein disclosed (e.g., compound 4) were evaluated as Topo II inhibitors. A well established in vitro Topo II assay (as used previously) allowed us to determine whether these new conjugates (previously described compound A and novel compound 4 of the present invention) have the ability to inhibit Topo II by preventing Topo IIa from decatenating (i.e., disentangling) kinetoplast DNA (kDNA).
Sequence of Topoisomerase IIalpha (Topo IIa) (P11388 whole entry): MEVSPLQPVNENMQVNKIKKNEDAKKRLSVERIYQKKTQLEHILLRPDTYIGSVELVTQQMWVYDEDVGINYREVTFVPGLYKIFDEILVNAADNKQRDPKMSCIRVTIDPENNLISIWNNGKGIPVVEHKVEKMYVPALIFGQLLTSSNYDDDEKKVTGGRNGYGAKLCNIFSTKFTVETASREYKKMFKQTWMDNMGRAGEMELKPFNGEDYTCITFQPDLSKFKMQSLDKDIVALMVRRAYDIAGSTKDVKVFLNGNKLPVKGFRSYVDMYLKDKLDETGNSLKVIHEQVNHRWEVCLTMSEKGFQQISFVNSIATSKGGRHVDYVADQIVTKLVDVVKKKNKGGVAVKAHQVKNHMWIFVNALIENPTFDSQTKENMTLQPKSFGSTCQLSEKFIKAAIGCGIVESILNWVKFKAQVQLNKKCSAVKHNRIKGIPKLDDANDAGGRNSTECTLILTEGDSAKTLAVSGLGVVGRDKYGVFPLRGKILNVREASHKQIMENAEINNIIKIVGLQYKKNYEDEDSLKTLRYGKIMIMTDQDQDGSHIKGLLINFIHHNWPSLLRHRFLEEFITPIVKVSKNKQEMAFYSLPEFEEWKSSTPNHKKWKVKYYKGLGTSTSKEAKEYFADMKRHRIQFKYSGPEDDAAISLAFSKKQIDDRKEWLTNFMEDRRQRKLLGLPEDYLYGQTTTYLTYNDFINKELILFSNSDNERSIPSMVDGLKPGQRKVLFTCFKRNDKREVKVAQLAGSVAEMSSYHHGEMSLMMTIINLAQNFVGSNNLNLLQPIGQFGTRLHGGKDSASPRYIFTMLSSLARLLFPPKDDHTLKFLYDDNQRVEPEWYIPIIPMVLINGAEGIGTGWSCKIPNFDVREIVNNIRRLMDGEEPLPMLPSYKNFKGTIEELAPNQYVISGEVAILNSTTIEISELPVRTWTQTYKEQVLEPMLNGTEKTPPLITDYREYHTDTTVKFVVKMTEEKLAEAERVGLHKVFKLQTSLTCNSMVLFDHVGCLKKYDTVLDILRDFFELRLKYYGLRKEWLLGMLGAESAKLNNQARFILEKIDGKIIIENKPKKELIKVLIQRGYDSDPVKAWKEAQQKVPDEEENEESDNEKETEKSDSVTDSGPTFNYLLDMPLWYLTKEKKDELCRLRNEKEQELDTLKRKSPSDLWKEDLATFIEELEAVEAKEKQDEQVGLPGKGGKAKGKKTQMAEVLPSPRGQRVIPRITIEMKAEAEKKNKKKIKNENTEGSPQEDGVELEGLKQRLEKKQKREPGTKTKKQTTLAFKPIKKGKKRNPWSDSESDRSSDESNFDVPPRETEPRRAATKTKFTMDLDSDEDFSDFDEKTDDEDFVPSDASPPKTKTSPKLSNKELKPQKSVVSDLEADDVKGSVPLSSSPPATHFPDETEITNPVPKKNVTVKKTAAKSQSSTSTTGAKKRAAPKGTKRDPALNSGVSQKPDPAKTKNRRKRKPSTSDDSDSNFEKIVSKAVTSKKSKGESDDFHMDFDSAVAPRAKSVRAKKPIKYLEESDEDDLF
A negative image of agarose gel electrophoresis is visualized under UV light. Drugs were incubated with kDNA (200 ng) and Topo IIa (4 units) in reaction buffer prior to loading onto the gel. Neg. Control (−): kDNA only; Pos. Control (+): kDNA+Topo II (without conjugate); Inhibitory Control (B, rightmost lane): Berenil (50 μM). All other lanes contain the corresponding conjugate at the listed μM concentrations. Positive Topo II activity is shown by the formation of nicked open circular (NOC) DNA (middle band) and covalently closed circular (CCC) DNA (bottom band). Inhibition is shown by the negative activity of Topo II where kDNA (top band) is not decatenated and remains in the well.
When kDNA was not incubated with drug and Topo II (negative control), no migration occurred on the gel and the kDNA remained in the well as expected, which was indicated by the single top band visualized in the well. When kDNA was incubated with Topo II in the absence of drug, the top band in the well disappeared completely while two bands representing the two decatenated products could be seen.

In the next assay the test system is CHO cells. In words: CHO wild type cytotoxicity (active polyamine transport). The class given is cell-based, Chinese hamster. The following applies: for IC50: Cricetulus griseus, CHO wild type cells, active PAT; for CHOMG/CHO IC50 Ratio: IC50 in CHOMG / IC50 in CHO, PAT selectivity. Here is the method: (§3) Chinese hamster ovary cells (CHO cells) have an active polyamine transporter. This cell type is very susceptible to drugs which use the polyamine transporter system to gain access to cells (i.e. polyamine conjugates). The PAT targeting selectivity was determined using a Chinese hamster cell assay. The CHO wild type cells have active polyamine transport activity and therefore should be very susceptible to the polyamine conjugate and give low IC50 values. […] The lower the value the more cytotoxic the drug is to that cell type. In contrast, the mutant CHO-MG cells, which have no PAT activity are not as sensitive to the polyamine conjugate (which is unable to enter these cells via the defective PAT) and give higher IC50 values. We express these as a ratio of the IC50 value in CHOMG/IC50 value in CHO. The higher the ratio the more PAT selective is the polyamine conjugate drug. […] Cytotoxicity experiments were also performed in murine leukemia cells (L1210, Table 3) with and without the presence of difluoromethylornithine (DFMO), a known inhibitor of ornithine decarboxylase (the enzyme responsible for polyamine biosynthesis). Typically, when one blocks the ability of cells to synthesize polyamines, the cells respond by increasing their import of extracellular polyamines via PAT. Therefore, if our drugs are PAT-selective we should see a lowering of their respective IC50 values in the presence of DFMO, a molecule which facilitates the drug's import. […] Ki values indicate the binding affinity of the compounds for the PAT. Using competition experiments with radiolabeled spermidine, we were able to rank the binding affinity of the compounds for the PAT. Low Ki values mean the compound has a high binding affinity for the PAT.

Assay [3] deals with L1210 cells. In words: L1210 cytotoxicity. The class given is cell-based. The following applies: Mus musculus, without DFMO. Here is the method: as §1, §2
Assay [4] concerns the target polyamine transporter (PAT). In words: PAT binding affinity, competition with radiolabeled spermidine in L1210. As to conditions: L1210 cells. The arrangement: species or system mouse. Here is the method:
“Ki value” reflects the affinity of the drug architecture for the polyamine transporter. The lower the value of the Ki, the higher the affinity of the drug for the polyamine transporter.
as §2

In another assay the test system is CHO-MG cells. In words: CHO-MG cytotoxicity (PAT-deficient mutant cells). The following applies: Cricetulus griseus, no PAT activity, read-out: CHOMG IC50. The class given is cell-based, Chinese hamster. The method, then: as §3, with “which are chemically mutated to be” for “(CHO cells) have an active”, “transport-deficient will be referred to as the CHO-MG” for “transporter. This”, “line. […]” for “type is very susceptible to drugs which use the polyamine transporter system to gain access to cells (i.e. polyamine conjugates).”

Counter-ions that a name gives are not always drawn.

The record followed here is patent US9150495B2, “Polyamine transporter selective compounds as anti cancer agents” (University of Central Florida Research Foundation, Inc., priority 2007, dated 2015).

The IC50 is the concentration that gives 50% inhibition. For orientation: Ki means a measure of affinity in units of concentration, obtained from inhibition or displacement. As to `Cl.NCCCCNCCCCNCc1c2ccccc2c(CNCCCCNCCCCN)c2ccccc12` [Compound 4, N-(4-Amino-butyl)-N′-(10-{[4-(4-amino-butylamino)-butylamino]-methyl}-anthracen-9-ylmethyl)-butane-1,4-diamine, Hydrochloride salt], the IC50 was 220 ± 80 nM with L1210 cells [1] (Mus musculus, L1210); 45 ± 3 nM in the assay on CHO cells; 780 ± 70 nM in the assay with L1210 cells [3]; greater than 100000 nM in the assay with CHO-MG cells. Moreover, in assay [2] (5 μM, kDNA 200 ng, Topo IIa 4 units), the “Topo II inhibition (kDNA remaining undecatenated)” value is “good inhibition”. The “Type of Topo II inhibition” value in assay [2] (inhibition increased with drug concentration) is “catalytic Topo-II inhibitors”. Further, in the assay on CHO cells (Hydrochloride salt), the “CHOMG/CHO IC50 Ratio” value is reported as greater than 2222. Moreover, the Ki in assay [4] came to 390 ± 50 nM.
For `CC(=O)NCC(=O)O.CC(=O)NCC(=O)O.N=C(N)c1ccc(N=NNc2ccc(C(=N)N)cc2)cc1` [Berenil, reference compound], the “Topo II inhibition (kDNA remaining in well)” value in assay [2] (50 μM, inhibitory control) is given as “good inhibition”.
For `Cl.NCCCCNCCCCNCc1ccc(CNCCCCNCCCCN)cc1` [Compound 10, N-(4-Amino-butyl)-N′-(4-{[4-(4-amino-butylamino)-butylamino]-methyl}-benzyl)-butane-1,4-diamine, Hydrochloride salt], the IC50 with L1210 cells [1] (Mus musculus, L1210) is 360 ± 30 nM; in the assay with CHO cells, 74 ± 10 nM; with L1210 cells [3], 160 ± 10 nM; in the assay on CHO-MG cells, 50200 ± 3800 nM. In the assay on CHO cells, the “CHOMG/CHO IC50 Ratio” value stood at 677. Further, the affinity in assay [4] corresponds to a Ki of 520 ± 110 nM.
As to `Cl.NCCCCNCCCCNCc1ccc(CNCCCCNCCCCN)c2ccccc12` [Compound 7, N-(4-Amino-butyl)-N′-(4-{[4-(4-amino-butylamino)-butylamino]-methyl}-naphthalen-1-ylmethyl)-butane-1,4-diamine, Hydrochloride salt], the IC50 with CHO cells was 120 ± 30 nM; with L1210 cells [3], 250 ± 80 nM; with CHO-MG cells, greater than 100000 nM. In the assay on CHO cells, the “CHOMG/CHO IC50 Ratio” value was greater than 833. In addition, in assay [4], the Ki turned out to be 170 ± 20 nM.
Regarding `NCCCCNCCCCNCc1cc(CNCCCCNCCCCN)cc(CN(CCCCN)CCCCN)c1` [Compound 15, N-(4-Amino-butyl)-N-(3,5-bis-{[4-(4-amino-butylamino)-butylamino]-methyl}-benzyl)-butane-1,4-diamine, nona-Hydrochloride Salt], the IC50 in the assay with L1210 cells [1] is 49300 ± 10000 nM; in the assay on CHO cells, greater than 500000 nM; in the assay with L1210 cells [3], 122000 ± 8100 nM; in the assay on CHO-MG cells it was greater than 500000 nM. The affinity in assay [4] corresponds to a Ki of 490 ± 20 nM.
